Results published in patent US20220251096A1, “7,8-DIHYDRO-4H-PYRAZOLO[4,3-c]AZEPINE-6-ONE COMPOUNDS” (Eli Lilly and Company, priority 2019, published 2022).

What was measured:
BRD4 (BD1, BD2) = target: T1, BRD4 (BD1, BD2) (Homo sapiens, UniProt O60885); experiment: BromoKdELECT platform assay, BRD4 (BD1, BD2); assay type: binding; conditions: 11 points dose-response, mean from a duplicate experiment
T1 construct: BRD4 (Bromodomain 1 (BD1) and Bromodomain 2 (BD2)); purchased DiscoverX (BromoKdELECT service)
Source text: (§1) The purpose of this assay is to evaluate the in vitro target engagement and selectivity (https://www.discoverx.com/services/drug-discovery-development-services/epigenetic-profiling/bromoscan-epigenetic-profiling/bromokdelect). Assay measurement is based on the amount of bromodomain captured in test and control samples by using quantitative PCR technology that detects the DNA label associated to bromodomain. Compounds that bind the bromodomain active site prevents its binding to the immobilized ligand and will reduce the amount of bromodomain captured on the solid support. […] Thus, compound activity is monitored by measuring the amount of bromodomain captured in test versus control samples by using qPCR. Binding affinity for test compound-bromodomain interactions are calculated by measuring the amount of bromodomain captured on the solid support as a function of the test compound concentration.
(§2) Binding affinity (Kd) of the compounds of Examples 1 and 2 towards CREBBP, EP300 and BRD4 (Bromodomain 1 (BD1) and Bromodomain 2 (BD2)) are determined in an 11 points dose-response study (See Table 5). Data is represented as a mean from a duplicate experiment.

BRD4 (BD1) = target: T2, BRD4 (BD1) (Homo sapiens, UniProt O60885); experiment: BromoKdELECT platform assay, BRD4 (BD1); assay type: binding; conditions: 11 points dose-response, mean from a duplicate experiment
T2 construct: BRD4 (Bromodomain 1 (BD1) and Bromodomain 2 (BD2)); purchased DiscoverX (BromoKdELECT service)
Source text: as §1, §2

THP-1 = experiment: Cell growth inhibition assay, THP-1; assay type: cell-based; conditions: Homo sapiens, 168 h; THP-1, 7 days
Method: Tumor cell lines are plated onto 96-well, black wall poly-D-lysine plates (Corning #354640), and incubated at 37° C., 5% CO2 for 18-24 hours. Compound was added at 1:3 dilutions in DMSO and cells were incubated at 37° C., 5% CO2 for 7 days. For adherent cell lines, cells were fixed and stained with propidium iodide and scanned on Acumen (channel 3 setting). For suspension cell lines, cell growth was monitored using Cell Titer-Glo reagent.

BRD4 (BD2) = target: T3, BRD4 (BD2) (Homo sapiens, UniProt O60885); experiment: BromoKdELECT platform assay, BRD4 (BD2); assay type: binding; conditions: 11 points dose-response, mean from a duplicate experiment
T3 construct: BRD4 (Bromodomain 1 (BD1) and Bromodomain 2 (BD2)); purchased DiscoverX (BromoKdELECT service)
Source text: as §1, §2

CREBBP = CREBBP (Homo sapiens, UniProt Q92793); experiment: BromoKdELECT platform assay, CREBBP; assay type: binding; parameters: purchased DiscoverX (BromoKdELECT service); conditions: 11 points dose-response, mean from a duplicate experiment
Source text: as §1, §2

CREBBP, sequence (Q92793 1085-1192 limits assumed): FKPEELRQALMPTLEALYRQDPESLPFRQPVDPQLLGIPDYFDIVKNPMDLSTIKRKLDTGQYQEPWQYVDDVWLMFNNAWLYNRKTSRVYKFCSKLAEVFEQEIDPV

SMILES: CCNC(=O)c1ccc(-c2cc3cccc(-c4nn(C)c5c4CN(C)C(=O)CC5)c3cn2)cn1 [Example 2, 5-[8-(1,5-Dimethyl-6-oxo-7,8-dihydro-4H-pyrazolo[4,3-c]azepin-3-yl)-3-isoquinolyl]-N-ethyl-pyridine-2-carboxamide]
- Kd (BRD4 (BD1, BD2)): 7400 nM
- Kd (BRD4 (BD1)): 2650 nM
- IC50 (THP-1): 29 nM
- Kd (BRD4 (BD2)): 6800 nM
- Kd (CREBBP): 0.325 nM
